Test results published in patent US20240174662A1, “SMALL MOLECULE INHIBITORS OF SALT INDUCIBLE KINASES” (Janssen Biotech, Inc., priority 2021, published 2024).

The compounds below were run against SIK2 (Homo sapiens (Human), UniProt Q9H0K1) (assay: SIK2 Enzymatic Assay Version 2 (High ATP)). Details: 3 mM ATP and 200 μM HDAC5tide final, ADP-Glo Max luminescence.
Type: biochemical
Procedure, shortened: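 Luminescent ADP-Glo Max read-out: depletion reagent 2 h, then detection reagent 1 h. Before the reaction, compounds were incubated 30 min with enzyme added at 6 nM (twice final concentration), with all steps at room temperature.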

Sequence of SIK2 (Q9H0K1 whole entry, species assumed): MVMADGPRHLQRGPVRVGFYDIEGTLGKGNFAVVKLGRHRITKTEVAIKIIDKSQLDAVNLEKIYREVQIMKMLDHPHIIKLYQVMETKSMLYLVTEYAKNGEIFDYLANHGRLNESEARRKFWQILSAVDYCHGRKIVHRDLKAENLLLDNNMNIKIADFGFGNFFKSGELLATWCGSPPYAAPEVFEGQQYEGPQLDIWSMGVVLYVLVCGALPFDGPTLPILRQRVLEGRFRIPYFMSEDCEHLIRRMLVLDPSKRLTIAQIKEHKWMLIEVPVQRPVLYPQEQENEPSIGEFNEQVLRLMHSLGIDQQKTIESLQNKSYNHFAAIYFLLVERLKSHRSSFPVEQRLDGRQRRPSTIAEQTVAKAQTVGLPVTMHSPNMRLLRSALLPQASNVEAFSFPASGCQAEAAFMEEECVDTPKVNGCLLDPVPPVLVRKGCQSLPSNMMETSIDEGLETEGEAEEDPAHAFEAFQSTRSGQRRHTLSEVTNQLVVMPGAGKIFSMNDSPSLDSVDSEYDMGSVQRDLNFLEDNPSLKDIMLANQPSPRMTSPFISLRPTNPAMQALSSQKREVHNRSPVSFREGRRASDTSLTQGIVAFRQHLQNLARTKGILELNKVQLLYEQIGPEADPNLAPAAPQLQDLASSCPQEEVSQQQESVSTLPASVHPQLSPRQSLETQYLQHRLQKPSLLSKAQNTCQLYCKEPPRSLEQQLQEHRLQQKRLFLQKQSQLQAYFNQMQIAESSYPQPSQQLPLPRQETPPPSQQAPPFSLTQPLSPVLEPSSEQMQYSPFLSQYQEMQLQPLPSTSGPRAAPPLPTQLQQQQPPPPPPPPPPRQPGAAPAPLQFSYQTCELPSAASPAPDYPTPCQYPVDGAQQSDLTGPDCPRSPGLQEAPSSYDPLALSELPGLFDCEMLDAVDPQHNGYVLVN

| Structure (SMILES) | IC50 |
| --- | --- |
| CN1CC[C@@H]1COc1cnn(C)c1-c1ccn2nc(NC(=O)[C@@H]3C[C@@H]3F)cc2c1 [Example 69, (1S,2S)-2-fluoro-N-[5-[2-methyl-4-[[(2R)-1-methylazetidin-2-yl]methoxy]pyrazol-3-yl]pyrazolo[1,5-a]pyridin-2-yl]cyclopropanecarboxamide] | 30.3 nM |
| CN1CC2(CCOCC2)C1COc1cnn(C)c1-c1ccn2nc(NC(=O)C3CC3)cc2c1 (racemic) [Example 13, (rac)-N-[5-[2-methyl-4-[(2-methyl-7-oxa-2-azaspiro[3.5]nonan-3-yl)methoxy]pyrazol-3-yl]pyrazolo[1,5-a]pyridin-2-yl]cyclopropanecarboxamide] | 71.5 nM |
| Cn1ncc(CO[C@@H]2CCNC2)c1-c1ccn2nc(NC(=O)C3CC3)cc2c1 [Example 182, N-[5-[2-methyl-4-[[(3R)-pyrrolidin-3-yl]oxymethyl]pyrazol-3-yl]pyrazolo[1,5-a]pyridin-2-yl]cyclopropanecarboxamide] | 34.4 nM |
| Cc1nccc(Nc2cc3cc(-c4c(OC[C@H]5CCCN5C)cnn4C)ccn3n2)n1 [Example 286, 5-[2-methyl-4-[[(2R)-1-methylpyrrolidin-2-yl]methoxy]pyrazol-3-yl]-N-(2-methylpyrimidin-4-yl)pyrazolo[1,5-a]pyridin-2-amine] | 23.5 nM |
| Cc1cnc(Nc2cc3cc(-c4c(OC[C@H]5CCN5)cnn4C)ccn3n2)cn1 [Example 393, 5-[4-[[(2R)-azetidin-2-yl]methoxy]-2-methyl-pyrazol-3-yl]-N-(5-methylpyrazin-2-yl)pyrazolo[1,5-a]pyridin-2-amine] | 98.4 nM |
| CN1CC[C@@H]1COc1cnn(C)c1-c1ccn2nc(Nc3ncc(F)cn3)cc2c1 [Example 395, N-(5-fluoropyrimidin-2-yl)-5-[2-methyl-4-[[(2R)-1-methylazetidin-2-yl]methoxy]pyrazol-3-yl]pyrazolo[1,5-a]pyridin-2-amine] | 97.5 nM |
| Cc1onc(OC[C@H]2CCCCN2C)c1-c1ccn2nc(NC(=O)C3CC3)cc2c1 [Example 502, N-[5-[5-methyl-3-[[(2R)-1-methyl-2-piperidyl]methoxy]isoxazol-4-yl]pyrazolo[1,5-a]pyridin-2-yl]cyclopropanecarboxamide] | 1580 nM |
| Cn1ncc(O[C@H]2CNC[C@H]2F)c1-c1ccn2nc(NC(=O)C3CC3)cc2c1 [Example 504, N-[5-[4-[(3S,4R)-4-fluoropyrrolidin-3-yl]oxy-2-methyl-pyrazol-3-yl]pyrazolo[1,5-a]pyridin-2-yl]cyclopropanecarboxamide] | 466 nM |
| CN1CC[C@@H](OCc2cnn(C)c2-c2ccn3nc(NC(=O)C4CC4)cc3c2)C1 [Example 362, N-[5-[2-methyl-4-[[(3R)-1-methylpyrrolidin-3-yl]oxymethyl]pyrazol-3-yl]pyrazolo[1,5-a]pyridin-2-yl]cyclopropanecarboxamide] | 52.8 nM |
| Cc1onc(OC[C@@H](N)c2ccccn2)c1-c1ccn2nc(NC(=O)C3CC3)cc2c1 [Example 223, N-[5-[3-[(2S)-2-amino-2-(2-pyridyl)ethoxy]-5-methyl-isoxazol-4-yl]pyrazolo[1,5-a]pyridin-2-yl]cyclopropanecarboxamide] | 30.7 nM |
| C[C@H]1C[C@H](Oc2cnn(C)c2-c2ccn3nc(NC(=O)C4CC4)cc3c2)CN1 [Example 338, N-[5-[2-methyl-4-[(3S,5S)-5-methylpyrrolidin-3-yl]oxy-pyrazol-3-yl]pyrazolo[1,5-a]pyridin-2-yl]cyclopropanecarboxamide] | 53 nM |
| Cn1ncc(O[C@H]2CCNC2)c1-c1ccn2nc(NC(=O)C3CC3)cc2c1 [Example 236, N-[5-[2-methyl-4-[(3S)-pyrrolidin-3-yl]oxy-pyrazol-3-yl]pyrazolo[1,5-a]pyridin-2-yl]cyclopropanecarboxamide] | 29.1 nM |
| Cc1onc(OC[C@@H]2CCCN2C)c1-c1ccn2nc(NC(=O)C3CC3)cc2c1 [Example 500, N-[5-[5-methyl-3-[[(2S)-1-methylpyrrolidin-2-yl]methoxy]isoxazol-4-yl]pyrazolo[1,5-a]pyridin-2-yl]cyclopropanecarboxamide] | 431 nM |
| Cc1onc(OC[C@@H]2CCN2C)c1-c1ccn2nc(NC(=O)C3CC3)cc2c1 [Example 498] | 232 nM |
| C[C@@H]1CC[C@H](COc2cnn(C)c2-c2ccn3nc(NC(=O)C4CC4)cc3c2)N1C [Example 256, N-[5-[4-[[(2R,5R)-1,5-dimethylpyrrolidin-2-yl]methoxy]-2-methyl-pyrazol-3-yl]pyrazolo[1,5-a]pyridin-2-yl]cyclopropanecarboxamide] | 42 nM |
| Cc1cc(Nc2cc3cc(-c4c(OC[C@H]5CCN5)cnn4C(F)F)ccn3n2)nc(C)n1 [Example 260, 5-[4-[[(2R)-azetidin-2-yl]methoxy]-2-(difluoromethyl)pyrazol-3-yl]-N-(2,6-dimethylpyrimidin-4-yl)pyrazolo[1,5-a]pyridin-2-amine] | 37.6 nM |
| CO[C@H]1CN(C)C[C@H]1Oc1cnn(C)c1-c1ccn2nc(NC(=O)C3CC3)cc2c1 (single isomer, unassigned) [Example 411, (3*R,4*S)—N-[5-[4-(4-methoxy-1-methyl-pyrrolidin-3-yl)oxy-2-methyl-pyrazol-3-yl]pyrazolo[1,5-a]pyridin-2-yl]cyclopropanecarboxamide] | 86.9 nM |
| Cc1cc(C)c(Nc2cc3cc(-c4c(OC[C@H]5CCN5C)cnn4C)ccn3n2)nn1 [Example 61, N-(4,6-dimethylpyridazin-3-yl)-5-[2-methyl-4-[[(2R)-1-methylazetidin-2-yl]methoxy]pyrazol-3-yl]pyrazolo[1,5-a]pyridin-2-amine] | 1140 nM |
| Cc1cc(Nc2cc3cc(-c4c(OC[C@@H](O)C5CCC5)cnn4C)ccn3n2)nc(C)n1 [Example 302, (S)-1-cyclobutyl-2-[5-[2-[(2,6-dimethylpyrimidin-4-yl)amino]pyrazolo[1,5-a]pyridin-5-yl]-1-methyl-pyrazol-4-yl]oxy-ethanol] | 28.3 nM |

Continued, values first:

| IC50 | Structure (SMILES) |
| --- | --- |
| 2.7 nM | Cc1cc(C(=O)NC(C)C)cc(Nc2cc3cc(-c4c(OC[C@H]5CCN5C)cnn4C)ccn3n2)n1 [Example 112, N-isopropyl-2-methyl-6-[[5-[2-methyl-4-[[(2R)-1-methylazetidin-2-yl]methoxy]pyrazol-3-yl]pyrazolo[1,5-a]pyridin-2-yl]amino]pyridine-4-carboxamide] |
| < 0.847 nM | [2H]C([2H])([2H])C([2H])([2H])N1CCC[C@@H]1COc1cnn(C)c1-c1ccn2nc(Nc3cc(C)nc(C)n3)cc2c1 [Example 293, N-(2,6-dimethylpyrimidin-4-yl)-5-[2-methyl-4-[[(2R)-1-(1,1,2,2,2-pentadeuterioethyl)pyrrolidin-2-yl]methoxy]pyrazol-3-yl]pyrazolo[1,5-a]pyridin-2-amine] |
| 16.4 nM | Cc1onc(O[C@H]2CN[C@H]3CCCO[C@H]32)c1-c1ccn2nc(NC(=O)C3CC3)cc2c1 (single isomer, unassigned) [Example 228, N-(5-(5-methyl-3-(((3*S,3a*R,7a*S)-octahydropyrano[3,2-b]pyrrol-3-yl)oxy)isoxazol-4-yl)pyrazolo[1,5-a]pyridin-2-yl)cyclopropanecarboxamide] |
| 23.2 nM | Cc1onc(OC[C@H](N)c2ccccc2F)c1-c1ccn2nc(NC(=O)C3CC3)cc2c1 [Example 221, N-[5-[3-[(2R)-2-amino-2-(2-fluorophenyl)ethoxy]-5-methyl-isoxazol-4-yl]pyrazolo[1,5-a]pyridin-2-yl]cyclopropanecarboxamide] |
| 1.1 nM | Cc1cc(Nc2cc3cc(-c4c(OC[C@H]5CCN5C)cnn4C)ccn3n2)nc(C(F)(F)F)n1 [Example 63, 5-[2-methyl-4-[[(2R)-1-methylazetidin-2-yl]methoxy]pyrazol-3-yl]-N-[6-methyl-2-(trifluoromethyl)pyrimidin-4-yl]pyrazolo[1,5-a]pyridin-2-amine] |
| 11.5 nM | Cc1onc(O[C@@H]2CNC[C@@H]2F)c1-c1ccn2nc(NC(=O)C3CC3)cc2c1 (racemic) [Example 208, (rac-cis)-N-[5-[3-(4-fluoropyrrolidin-3-yl)oxy-5-methyl-isoxazol-4-yl]pyrazolo[1,5-a]pyridin-2-yl]cyclopropanecarboxamide] |
| 1.2 nM | CCN1CC[C@@H]1COc1cnn(C)c1-c1ccn2nc(Nc3cc(C)ncn3)cc2c1 [Example 19, 5-[4-[[(2R)-1-Ethylazetidin-2-yl]methoxy]-2-methyl-pyrazol-3-yl]-N-(6-methylpyrimidin-4-yl)pyrazolo[1,5-a]pyridin-2-amine] |
| 7.9 nM | Cc1ccc(Nc2cc3cc(-c4c(OC[C@H]5CCN5C)cnn4C(F)F)ccn3n2)nn1 [Example 98, 5-[2-(difluoromethyl)-4-[[(2R)-1-methylazetidin-2-yl]methoxy]pyrazol-3-yl]-N-(6-methylpyridazin-3-yl)pyrazolo[1,5-a]pyridin-2-amine] |
| 11.1 nM | CN1CC[C@@H]1COc1cnn(C)c1-c1ccn2nc(NC(=O)[C@@H]3C[C@H]3c3ccccc3)cc2c1 (single isomer, unassigned) [Example 157, (1*R,2*R)—N-[5-[2-methyl-4-[((R)1-methylazetidin-2-yl)methoxy]pyrazol-3-yl]pyrazolo[1,5-a]pyridin-2-yl]-2-phenyl-cyclopropanecarboxamide] |
| 10.9 nM | CO[C@H]1CNC[C@H]1Oc1cnn(C)c1-c1ccn2nc(NC(=O)C3CC3)cc2c1 (stereo in doubt) [Example 5, N-(5-(4-(((3*R,4*S)-4-methoxypyrrolidin-3-yl)oxy)-1-methyl-1H-pyrazol-5-yl)pyrazolo[1,5-a]pyridin-2-yl)cyclopropanecarboxamide] |
| 22.3 nM | Cc1cc(Nc2cc3cc(-c4c(OC[C@H]5CCN5C)cnn4C)ccn3n2)nc(C(=O)NCC(C)(C)O)c1 [Example 113, N-(2-hydroxy-2-methyl-propyl)-4-methyl-6-[[5-[2-methyl-4-[[(2R)-1-methylazetidin-2-yl]methoxy]pyrazol-3-yl]pyrazolo[1,5-a]pyridin-2-yl]amino]pyridine-2-carboxamide] |
| < 0.847 nM | CCN1CC[C@@H]1COc1cnn(C)c1-c1ccn2nc(Nc3ccc4nccn4n3)cc2c1 [Example 175, N-[5-[4-[[(2R)-1-ethylazetidin-2-yl]methoxy]-2-methyl-pyrazol-3-yl]pyrazolo[1,5-a]pyridin-2-yl]imidazo[1,2-b]pyridazin-6-amine] |
